Laboratory results taken from ChEMBL document CHEMBL3739341, “Calycosin inhibits oxidative stress-induced cardiomyocyte apoptosis via activating estrogen receptor-α/β” (Bioorg Med Chem Lett, 2016).
Calls of active or inactive are those of the source. The calls are words filed in the database; no cut-off is given here.

Key:
[1] = test system: H9c2; test: Upregulation of ER-alpha expression in rat H9c2 cells after 24 hrs by western blot analysis; assay type: functional, cell-based
[2] = test system: H9c2; test: Inhibition of H2O2-induced apoptosis in rat H9c2 cells at 5,10 and 20 uM after 24 hrs by AO/EB staining based fluorescence microscopic analysis in presence of ER inhibitor ICI182780; assay type: functional, cell-based
[3] = biological target: T1, Estrogen receptor (Rattus norvegicus) (UniProt P06211+Q62986); test: Activation of ER-alpha/beta in rat H9c2 cells assessed as increase in phosphorylated Akt level after 24 hrs by western blot analysis; assay type: cell-based
[4] = biological target: T1, Estrogen receptor (Rattus norvegicus); test: Activation of ER-alpha/beta in rat H9c2 cells assessed as phosphorylated Akt level at 5,10 and 20 uM after 24 hrs by western blot analysis in presence of ER inhibitor ICI182780; assay type: cell-based
[5] = test system: H9c2; test: Upregulation of ER-beta expression in rat H9c2 cells after 24 hrs by western blot analysis; assay type: functional, cell-based
[6] = test system: H9c2; test: Inhibition of H2O2-induced apoptosis in rat H9c2 cells after 24 hrs by AO/EB staining based fluorescence microscopic analysis; assay type: functional, cell-based
[7] = test system: H9c2; test: Inhibition of H2O2-induced loss of cell viability in rat H9c2 cells at 5,10 and 20 uM after 24 hrs by MTT assay in presence of ER inhibitor ICI182780; assay type: functional, cell-based
[8] = test system: H9c2; test: Inhibition of H2O2-induced loss of cell viability in rat H9c2 cells at 5,10 and 20 uM after 24 hrs by MTT assay; assay type: functional, cell-based

Activity [3]: Active | Activity [4]: inactive
SMILES: COc1ccc(-c2coc3cc(O)ccc3c2=O)cc1O
Activity [1]: Dose-dependent effect | inhibition [2]: inactive | Activity [5]: Dose-dependent effect | inhibition [6]: Dose-dependent effect | inhibition [7]: inactive | inhibition [8]: Active
